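1) Cells in 96-well plates. 2) Compound, 48 h, 5 concentrations. 3) Linear interpolation between surrounding doses. 4) Unreached endpoint = highest concentration. The concentration for 50% growth inhibition is given as GI50. The concentration for full growth arrest is given as TGI.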
Key:
Test in all cases: DTP human tumour cell line panel, 48 h
A549 NSCLC = tested on: A549 NSCLC
HCT-116 colon = tested on: HCT-116 colon
IGROV1 ovarian = tested on: IGROV1 ovarian
M14 melanoma = tested on: M14 melanoma
OVCAR-3 ovarian = tested on: OVCAR-3 ovarian
OVCAR-8 ovarian = tested on: OVCAR-8 ovarian
RPMI-8226 leukemia = tested on: RPMI-8226 leukemia
SW-620 colon = tested on: SW-620 colon
UACC-257 melanoma = tested on: UACC-257 melanoma
HS 578T breast = tested on: HS 578T breast

Structure (SMILES)	TGI (A549 NSCLC) [µM]	TGI (HCT-116 colon) [µM]	TGI (IGROV1 ovarian) [µM]	TGI (M14 melanoma) [µM]	TGI (OVCAR-3 ovarian) [µM]	TGI (OVCAR-8 ovarian) [µM]	TGI (RPMI-8226 leukemia) [µM]	TGI (SW-620 colon) [µM]	TGI (UACC-257 melanoma) [µM]	GI50 (A549 NSCLC) [µM]	GI50 (HCT-116 colon) [µM]	GI50 (IGROV1 ovarian) [µM]	GI50 (M14 melanoma) [µM]	GI50 (OVCAR-3 ovarian) [µM]	GI50 (OVCAR-8 ovarian) [µM]	GI50 (SW-620 colon) [µM]	GI50 (UACC-257 melanoma) [µM]	TGI (HS 578T breast) [µM]	GI50 (HS 578T breast) [µM]	GI50 (RPMI-8226 leukemia) [µM]
O=c1cc(-c2cccs2)[nH]c2cc3c(cc12)OCO3	> 100	> 100	> 53.4	> 100	> 28.5	27.7	> 100	> 100	> 100	–	–	–	–	–	–	–	–	–	–	–
O=C(/C=C/c1ccccc1)Oc1cccc2cccnc12	76.9	10.9	32.4	14.8	24.6	> 62.2	> 100	21.9	18.2	–	–	–	–	–	–	–	–	–	–	–
O=C(O)CCNS(=O)(=O)c1ccc(NC(=O)c2ccccc2)cc1	> 100	–	> 100	> 100	> 100	> 100	> 100	> 100	> 100	–	–	–	–	–	–	–	–	–	–	–
CC1=C([Se]CC(OC(=O)CC[Se]c2ccccc2)C(=O)NC(C)(C)C)C(=O)c2ccccc2C1=O (stereo unspecified)	3.61	2.86	2.94	3.21	3.11	3.27	–	3.88	2.95	1.63	1.47	1.53	1.67	1.61	1.77	1.91	1.57	–	–	–
c1ccc(C2ONC3=NCCN32)cc1 (stereo unspecified)	> 100	> 100	> 100	> 100	66.3	> 100	–	> 100	> 100	51.1	30.3	31.2	> 100	20.5	44.6	44.7	> 100	–	–	–
CCc1c(C#N)c(=O)[nH]c(=O)n1CCN1CCN(C(=O)NCCCCCCNC(=O)N2CCN(CCn3c(CC)c(C#N)c(=O)[nH]c3=O)CC2)CC1	> 100	> 100	> 100	> 100	> 100	> 100	> 100	> 100	> 100	–	–	–	–	–	–	–	–	–	–	–
O=c1oc2ccccc2c2c1Sc1ccccc1N2	–	> 100	> 100	> 100	> 100	> 100	> 100	> 100	> 100	–	–	–	–	–	–	–	–	> 100	–	–
O=C(NCCCOC(=O)CCCCCCCCC(=O)OCCCNC(=O)NC(=O)c1c[nH]c(=O)[nH]c1=O)NC(=O)c1c[nH]c(=O)[nH]c1=O	> 100	> 100	> 100	> 100	> 100	> 100	> 100	> 100	> 100	–	–	–	–	–	–	–	–	–	–	–
Cc1ccc2cnc(N)c(C#Cc3cc(C(=O)Nc4ccc(CN5CCN(C)CC5)c(C(F)(F)F)c4)cnc3C)c2c1	–	1.39	0.712	1.16	2.66	3.85	2.86	1.07	1.48	–	0.513	0.128	0.334	0.67	1.11	0.344	0.651	2.76	0.901	1.01
Nc1ncnc2c1ncn2C1OC(CSCC(F)(F)F)C(O)C1O (stereo unspecified)	> 100	> 100	> 100	> 100	> 100	> 100	> 100	> 100	> 100	–	–	–	–	–	–	–	–	–	–	–
CCSCCCSCCSCC	> 100	> 100	> 100	> 100	> 100	> 100	–	> 100	> 100	–	–	–	–	–	–	–	–	–	–	–
CN1N=CSC12C(=O)N(c1ccccc1)C(=O)N2c1ccccc1 (stereo unspecified)	> 100	> 100	> 100	> 100	> 100	> 100	> 100	> 100	> 100	–	–	–	–	–	–	–	–	–	–	–
Cc1nc(C(N)=O)c(N)n1CCN1CCN(C(=O)CCCCCCCCCCNC2N=CNc3nc[nH]c32)CC1 (stereo unspecified)	> 100	> 100	> 100	82.8	> 100	> 100	–	> 100	45.7	–	–	–	–	–	–	–	–	–	–	–
O=C(N/N=C/c1ccccc1O)N/N=C/c1ccccc1O	> 100	> 100	> 100	> 100	> 100	> 100	> 100	> 100	> 100	–	–	–	–	–	–	–	–	–	–	–
N#CC(N)=Nc1ccccc1	> 100	> 100	> 100	> 100	> 100	> 100	> 100	> 100	–	–	–	–	–	–	–	–	–	–	–	–
COC(=O)C1=CO[C@@H](OC2CC(CO)C(O)C(O)C2O)[C@@H]2[C@@H](C)[C@@H](OC(=O)/C=C/c3ccccc3)[C@@H](O)[C@H]12 (stereo partly specified) (tested in a mixture with another compound)	> 100	> 100	> 100	> 100	> 100	> 100	> 100	> 100	> 100	–	–	–	–	–	–	–	–	–	–	–
O=C1CC(CC(=O)C2CCCCC2=O)C(=O)N1 (stereo unspecified)	> 100	> 100	> 100	> 100	> 100	> 100	> 100	> 100	> 100	–	–	–	–	–	–	–	–	–	–	–
Oc1cccc(Nc2nc3ccccc3c3occc23)c1	22.8	31.1	–	28.2	12.9	30.5	18.2	30.8	29.4	10.9	17.3	–	14.9	2.09	13	17.1	15.9	31.4	13.9	4.98
CCOC(=O)Oc1c(OC)cc(C(=O)c2ccc(OC)c(O)c2OC)cc1OC	> 100	12.8	> 100	> 100	> 100	> 100	> 100	> 100	> 100	3.96	0.44	3.86	0.319	0.414	3.36	0.489	> 100	–	–	0.456
COC(=O)/C(=N\NC(C)(C)C)C(C(=O)OC)C(=O)C(=O)Nc1cc(Cl)ccc1Cl (stereo unspecified)	> 100	> 100	> 100	> 100	> 100	> 100	–	> 100	> 100	–	–	–	–	–	–	–	–	–	–	–

From PubChem BioAssay (NCI)
